In this test the test system is subgenomic HCV replicon in Huh-7 cells. Put plainly: Cell-Based HCV Replication Assay (replicon, NS3 Cell-ELISA). As to conditions: read-out: Cell based HCV Replication Assay-IC50. Details: species or system hepatitis C virus (HCV). From the text: Another suitable assay is the cellular Replicon or rheplisa assay described as follows:
Cell-Based HCV Replication Assay
Cell clones that stably maintain subgenomic HCV replicon were obtained by transfecting Huh-7 cells with an RNA replicon identical to I377neo/NS3-3′/wt described by V. Lohmann et al., 285 SCIENCE 110 (Jul. 2, 1999) (EMBL-GENBANK No. AJ242652), followed by selection with neomycin sulfate (G418). Viral replication was monitored by measuring the expression of the NS3 protein by an ELISA assay performed directly on cells grown in 96-well microtiter plates (Cell-ELISA) using the anti-NS3 monoclonal antibody 10E5/24 (as described in International Patent Application Publication WO 02/59321). Cells were seeded into 96 well plates at a density of 10^4 cells per well in a final volume of 0.1 ml of DMEM/10% FCS. Two hours after plating, 50 μl of DMEM/10% FCS containing a 3× concentration of inhibitor were added, cells were incubated for 96 hours and then fixed for 10 minutes with ice-cold isopropanol. Each condition was tested in duplicate and average absorbance values were used for calculations. The cells were washed twice with PBS, blocked with 5% non-fat dry milk in PBS+0.1% TRITON X-100+0.02% SDS (PBSTS) and then incubated o/n at 4° C. with the 10E5/24 mab diluted in Milk/PBSTS. After washing 5 times with PBSTS, the cells were incubated for 3 hours at room temperature with Fe-specific anti-mouse IgG conjugated to alkaline phosphatase (Sigma), diluted in Milk/PBSTS. After washing again as above, the reaction was developed with p-nitrophenyl phosphate disodium substrate (Sigma) and the absorbance at 405/620 nm read at intervals. For calculations, we used data sets where samples incubated without inhibitors had absorbance values comprised between 1 and 1.5. The inhibitor concentration that reduced by 50% the expression of NS3 (IC50) was calculated by fitting the data to the Hill equation, Fraction inhibition=1−(Ai−b)/(A0−b)=[I]^n/([I]+IC50) where: • Ai=absorbance value of HBI10 cells supplemented with the indicated inhibitor concentration. • A0=absorbance value of HBI10 cells incubated without inhibitor. • b=absorbance value of Huh-7 cells plated at the same density in the same microtiter plates and incubated without inhibitor. • n=Hill coefficient.

The mark [1] stands for this setting: Hepatitis C virus, Huh-7 cells with subgenomic HCV replicon, NS3 expression by Cell-ELISA, 96 hours incubation.

Read-outs that look alike come from different tables or passages of the source.

Consider `C=C[C@@H]1C[C@]1(NC(=O)[C@@H]1C[C@@H]2CN1C(=O)[C@H](C1CCCCC1)NC(=O)N1CCC[C@H](C1)OCCCc1cc3c(cc(OCC)nc3cc1OC)O2)C(=O)NS(=O)(=O)C1CC1` [Example 12, (3R,5S,8S,15R)-8-cyclohexyl-N-((1R,2S)-1-{[(cyclopropylsulfonyl)amino]carbonyl}-2-vinylcyclopropyl)-25-ethoxy-21-methoxy-7,10-dioxo-2,16-dioxa-6,9,11,24-tetraazapentacyclo [18.6.2.1^3,6.1^11,15.0^23,27] triaconta-1(27),20,22,23,25,27-hexaene-5-carboxamide], for which the IC50 (Hepatitis C virus, Huh-7, 96 h) was determined as 4 nM.

With `C=C[C@@H]1C[C@]1(NC(=O)[C@@H]1C[C@@H]2CN1C(=O)[C@H](C1CCCCC1)NC(=O)N1CC[C@@H](C1)OC/C=C/c1cc3c(cc(OCC)nc3cc1OC)O2)C(=O)NS(=O)(=O)C1CC1` [Example 13, (3R,5S,8S,14S,17E)-8-cyclohexyl-N-((1R,2S)-1-{[(cyclopropylsulfonyl)amino]carbonyl}-2-vinylcyclopropyl)-24-ethoxy-20-methoxy-7,10-dioxo-2,15-dioxa-6,9,11,23-tetraazapentacyclo [17.6.2.1^3,6.1^11,14.0^22,26] nonacosa-1(25),17,19,21,23,26-hexaene-5-carboxamide], the IC50 under setting [1] came out at 9 nM.

Consider `C=C[C@@H]1C[C@]1(NC(=O)C1C[C@@H]2CN1C(=O)[C@H](C1CCCC1)NC(=O)N1CC[C@@H](C1)OCCC/C=C/c1cc3ccc(OC)cc3nc1O2)C(=O)NS(=O)(=O)C1CC1` (stereo partly drawn) [Example 17, (1R,13E,19S,25S,28S)-25-cyclopentyl-N-((1R,2S)-1-{[(cyclopropylsulfonyl)amino]carbonyl}-2-vinylcyclopropyl)-7-methoxy-23,26-dioxo-2,18-dioxa-4,22,24,27-tetraazapentacyclo [25.2.1.1^19,22.0^3,12.0^5,10] hentriaconta-3(12),4,5,7,9,10,13-heptaene-28-carboxamide], for which the IC50 under setting [1] is 4 nM.

Regarding `C=C[C@@H]1C[C@]1(NC(=O)[C@@H]1C[C@@H]2CN1C(=O)[C@H](C1CCCC1)NC(=O)N1CC[C@@H](C1)OCCCCCc1cc3ccc(OC)cc3nc1O2)C(=O)NS(=O)(=O)C1CC1` [Example 18, (1R,19S,25S,28S)-25-cyclopentyl-N-((1R,2S)-1-{[(cyclopropylsulfonyl)amino]carbonyl}-2-vinylcyclopropyl)-7-methoxy-23,26-dioxo-2,18-dioxa-4,22,24,27-tetraazapentacyclo [25.2.1.1^19,22.0^3,12.0^5,10] hentriaconta-3(12),4,5,7,9,10-hexaene-28-carboxamide], under setting [1], the IC50 turned out to be 7 nM.

On to `CC[C@@H]1C[C@]1(NC(=O)[C@@H]1C[C@@H]2CN1C(=O)[C@H](C1CCCC1)NC(=O)N1CC[C@@H](C1)OCCC/C=C/c1cc3ccc(OC)cc3nc1O2)C(=O)NS(=O)(=O)C1CC1` [Example 19, (1R,13E,19S,25S,28S)-25-cyclopentyl-N-((1R,2R)-1-{[(cyclopropylsulfonyl)amino]carbonyl}-2-ethylcyclopropyl)-7-methoxy-23,26-dioxo-2,18-dioxa-4,22,24,27-tetraazapentacyclo [25.2.1.1^19,22.0^3,12.0^5,10] hentriaconta-3(12),4,5,7,9,10,13-heptaene-28-carboxamide], for which the concentration for half-maximal inhibition (IC50) under setting [1] came out at 4 nM.

Turning to `CC[C@@H]1C[C@]1(NC(=O)[C@@H]1C[C@@H]2CN1C(=O)[C@H](C1CCCC1)NC(=O)N1CC[C@@H](C1)OCCCCCc1cc3ccc(OC)cc3nc1O2)C(=O)NS(=O)(=O)C1CC1` [Example 20, (1R,19S,25S,28S)-25-cyclopentyl-N-((1R,2R)-1-{[(cyclopropylsulfonyl)amino]carbonyl}-2-ethylcyclopropyl)-7-methoxy-23,26-dioxo-2,18-dioxa-4,22,24,27-tetraazapentacyclo [25.2.1.1^19,22.0^3,12.0^5,10] hentriaconta-3(12),4,5,7,9,10-hexaene-28-carboxamide], under “Huh-7 cells with subgenomic HCV replicon, NS3 expression by Cell-ELISA, 96 hours incubation”, the IC50 was 15 nM.
